# Laboratory results taken from US11725107B2, “Polylysine polymers with antimicrobial and/or anticancer activity” (International Business Machines Corporation, priority 2019, dated 2023).
# Tested on: K. pneumoniae
# Assay: Antimicrobial activity (MIC) of polymers and antibiotics individually
# Format: cell-based
# Conditions: Klebsiella pneumoniae, agents individually
# Text: As depicted in FIGS. 1-5, “m” can represent a number that is, for example, greater than or equal to 5 and less than or equal to 30, and/or “n” can represent a number that is, for example, greater than or equal to 0 and less than or equal to 25. Additionally, the “*” can represent: one or more repetitions of all and/or parts of the structures shown, one or more hydrogens, an alkyl group, an aryl group, a combination thereof, and/or the like. Unless otherwise stated, materials utilized to facilitate the experiments, tables, charts, diagrams, and/or the like described herein can be acquired from the following sources. The bacteria Staphylococcus aureus (“S. aureus”, ATCC 29737), Escherichia coli (“E. coli”, ATCC 25922), Pseudomonas aeruginosa (“P. aeruginosa”, ATCC 9027), Candida albicans (“C. albicans”, ATCC 10231), and/or Klebsiella pneumoniae (“K. pneumoniae”, ATCC700603) were acquired from American Type Culture Collection (“ATCC”).
# Further, Table 1, presented below, can depict the antimicrobial activity of the guanidinium functionalized polylysine polymers and/or antibiotics individually with regards to K. pneumoniae.
row,MIC [µg/mL],Structure (SMILES)
1,4 to 8,CO/N=C(\C(=O)N[C@@H]1C(=O)N2C(C(=O)O)=C(CSC(=O)c3ccco3)CS[C@H]12)c1csc(N)n1 [Ceftiofur]
2,15.6,CN(C)[C@@H]1C(O)=C(C(N)=O)C(=O)[C@@]2(O)C(O)=C3C(=O)c4c(O)ccc(Cl)c4[C@@](C)(O)[C@H]3C[C@@H]12 [Chlortetracycline]
3,1,CCN1CCN(c2cc3c(cc2F)c(=O)c(C(=O)O)cn3C2CC2)CC1 [Enrofloxacin]
4,31.3,CO[C@H]1/C=C/O[C@@]2(C)Oc3c(C)c(O)c4c(O)c(c(/C=N/N5CCN(C)CC5)c(O)c4c3C2=O)NC(=O)/C(C)=C\C=C\[C@H](C)[C@H](O)[C@@H](C)[C@@H](O)[C@@H](C)[C@H](OC(C)=O)[C@@H]1C [Rifampicin]
